Source: patent publication US20030165447A1, “Topical leave-on compositions containing pantothenic acid and its derivatives to reduce the need for underarm shaving” (The Procter & Gamble Company, priority 2001, published 2003)

Assay: Acid or hold stability of sample compositions held at 85° C. for 24 hours
Assay type: physicochemical
Details: heated liquid held at 85° C., 24 hour period; 3.00% pantothenic acid derivative with 25.25% aluminum zirconium trichlorohydrate
Procedure: The topical leave-on compositions of the present invention are evaluated to determine the relative acid or hold stability of selected pantothenic acid derivatives as defined herein (e.g., ethyl panthenol, panthenyl triacetate) relative to other pantothenic acid derivatives (e.g., panthenol, calcium pantothenate). In this context, acid or hold stability is found to correlate with the lack of visibly apparent crystal formation within or extending from the sample product or by the lack of any significant off-odor development, over a 24 hours period at an elevated hold temperature of 85° C.
Each sample composition is formulated with the above-described ingredients and then held at 85° C. as a heated liquid for a 24 hour period and evaluated during that that period of time for any visibly apparent crystal formations within or extending from the formulation, and for any off-odor development. The evaluated product is maintained in the heated liquid state at 85° C. during the evaluation period to assimilate the elevated processing or hold temperatures often associated with the making of such antiperspirant and deodorant products, and to assimilate those conditions that favor acid-degradation of pantothenic acid derivatives as described herein.

Off-odor formation | SMILES | Visible crystal formation
little or no off-odor development | CCOCCCNC(=O)[C@H](O)C(C)(C)CO [ethyl panthenol] | do not exhibit the undesirable crystal formation
little or no off-odor development | CC(=O)OCCCNC(=O)[C@H](OC(C)=O)C(C)(C)COC(C)=O [panthenyl triacetate] | do not exhibit the undesirable crystal formation
